Patent publication US9550782B2, “Compounds and methods for treating diabetes” (Medivation Technologies, Inc., priority 2011, dated 2017)
Where two headings read alike, the source gives them in different places. Each block holds one molecule with its values, some of them ahead of it.

Assays:
[1] = target: T1, human recombinant adrenergic α2A receptor (Homo sapiens, UniProt P08913); assay: Radioligand binding, adrenergic α2A ([3H]MK-912); conditions: [3H]MK-912
T1 construct: expressed in transfected cells; host or cells: insect Sf9 cells
T1 sequence (P08913 1-465): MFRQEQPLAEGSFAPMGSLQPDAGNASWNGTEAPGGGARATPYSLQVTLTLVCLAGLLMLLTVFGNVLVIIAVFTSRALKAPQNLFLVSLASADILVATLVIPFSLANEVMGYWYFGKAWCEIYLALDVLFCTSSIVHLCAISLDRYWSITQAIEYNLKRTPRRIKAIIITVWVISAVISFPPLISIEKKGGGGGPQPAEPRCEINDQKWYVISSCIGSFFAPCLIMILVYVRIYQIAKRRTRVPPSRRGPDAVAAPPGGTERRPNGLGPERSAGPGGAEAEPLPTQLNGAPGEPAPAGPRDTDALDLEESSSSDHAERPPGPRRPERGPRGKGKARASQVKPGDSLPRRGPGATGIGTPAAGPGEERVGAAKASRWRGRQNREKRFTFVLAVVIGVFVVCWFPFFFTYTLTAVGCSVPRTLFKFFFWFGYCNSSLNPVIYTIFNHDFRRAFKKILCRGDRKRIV
Summary of the method: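 Sf9 membranes, 1 nM [3H]MK-912, 60 min, 25 °C, Tris-HCl pH 7.4/MgCl2/EDTA buffer. NSB: 10 μM WB-4101. Filtration, counting; % inhibition of specific binding.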

[2] = target: T2, human recombinant adrenergic α1D receptor (Homo sapiens, UniProt P25100); assay: Radioligand binding, adrenergic α1D ([3H]Prazosin); conditions: for Percentage inhibition of ligand binding, Adrenergic α1D (0.1 μM): repeat datapoints each shown
T2 construct: expressed in transfected cells; host or cells: HEK-293
T2 sequence (P25100 1-572): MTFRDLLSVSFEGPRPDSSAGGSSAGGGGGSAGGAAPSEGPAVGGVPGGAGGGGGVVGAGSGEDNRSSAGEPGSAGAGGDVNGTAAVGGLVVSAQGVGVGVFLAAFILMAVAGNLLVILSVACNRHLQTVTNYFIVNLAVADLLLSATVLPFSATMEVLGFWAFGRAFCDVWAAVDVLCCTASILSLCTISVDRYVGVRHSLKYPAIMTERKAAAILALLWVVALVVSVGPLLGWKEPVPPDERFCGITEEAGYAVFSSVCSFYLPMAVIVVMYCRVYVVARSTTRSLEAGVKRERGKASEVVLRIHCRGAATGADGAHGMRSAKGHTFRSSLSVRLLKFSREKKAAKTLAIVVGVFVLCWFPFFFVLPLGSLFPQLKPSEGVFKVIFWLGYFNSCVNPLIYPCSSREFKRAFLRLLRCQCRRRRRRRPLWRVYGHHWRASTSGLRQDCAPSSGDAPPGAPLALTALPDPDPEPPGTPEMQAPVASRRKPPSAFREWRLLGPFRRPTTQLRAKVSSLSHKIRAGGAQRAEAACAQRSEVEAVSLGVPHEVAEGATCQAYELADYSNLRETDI
Method: Compounds were incubated with 0.6 nM [^3H]Prazosin for 60 min at 25° C. Non-specific binding was estimated in the presence of 10 μM phentolamine. Receptor proteins were filtered and washed, the filters were then counted to determine [^3H]Prazosin specifically bound. […] Biochemical assay results are presented as the percent inhibition of specific binding in Table B1.

[3] = target: T3, rat adrenergic α1B receptor (Rattus norvegicus, UniProt P15823); assay: Radioligand binding, adrenergic α1B ([3H]Prazosin); parameters: species or system Wistar Rat; conditions: for Percentage inhibition of ligand binding, Adrenergic α1B (0.1 μM): repeat datapoints each shown
T3 construct: rat adrenergic α1B receptor obtained from Wistar Rat liver; from tissue; host or cells: Wistar rat liver
T3 sequence (P15823 1-515): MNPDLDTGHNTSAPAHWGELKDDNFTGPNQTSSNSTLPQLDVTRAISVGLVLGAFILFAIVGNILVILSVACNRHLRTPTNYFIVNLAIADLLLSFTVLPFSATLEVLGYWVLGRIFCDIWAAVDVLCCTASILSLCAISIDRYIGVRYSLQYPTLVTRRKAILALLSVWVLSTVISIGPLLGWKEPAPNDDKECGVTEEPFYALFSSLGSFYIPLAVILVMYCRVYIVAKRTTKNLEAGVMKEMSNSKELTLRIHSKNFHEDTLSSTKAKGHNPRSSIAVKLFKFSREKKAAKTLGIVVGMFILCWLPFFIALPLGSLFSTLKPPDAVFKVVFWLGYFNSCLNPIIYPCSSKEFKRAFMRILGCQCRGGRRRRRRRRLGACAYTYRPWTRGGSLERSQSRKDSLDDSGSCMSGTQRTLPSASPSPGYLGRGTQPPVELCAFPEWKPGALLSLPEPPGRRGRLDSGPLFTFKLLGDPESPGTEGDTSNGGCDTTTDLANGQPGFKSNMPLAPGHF
Summary of the method: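 Specific binding, taken as total minus that remaining with 10 μM phentolamine, is measured after filtration and counting. Rat liver receptor preparation and 0.25 nM [3H]prazosin are incubated with compound in 50 mM Tris-HCl (pH 7.4, 0.5 mM EDTA) at 25° C for 60 min. Activity is reported as percent inhibition.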

[4] = target: T4, human recombinant adrenergic α2B receptor (Homo sapiens, UniProt P18089); assay: Radioligand binding, adrenergic α2B ([3H]Rauwolscine); conditions: for Percentage inhibition of ligand binding, Adrenergic α2B (0.1 μM): repeat datapoints each shown
T4 construct: expressed in transfected cells; host or cells: CHO-K1
T4 sequence (P18089 1-450): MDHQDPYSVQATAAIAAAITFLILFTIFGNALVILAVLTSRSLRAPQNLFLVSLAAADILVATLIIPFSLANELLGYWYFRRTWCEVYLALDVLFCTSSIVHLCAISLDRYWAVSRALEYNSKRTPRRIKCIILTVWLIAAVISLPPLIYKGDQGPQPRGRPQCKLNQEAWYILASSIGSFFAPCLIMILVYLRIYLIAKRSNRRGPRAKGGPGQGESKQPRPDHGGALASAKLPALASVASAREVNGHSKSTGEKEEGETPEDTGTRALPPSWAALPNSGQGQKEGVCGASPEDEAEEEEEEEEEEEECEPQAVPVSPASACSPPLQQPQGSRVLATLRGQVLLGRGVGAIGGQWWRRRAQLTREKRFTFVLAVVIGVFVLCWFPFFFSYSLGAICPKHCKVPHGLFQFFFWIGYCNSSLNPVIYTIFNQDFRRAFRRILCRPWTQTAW
Summary of the method: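 Assay used CHO-K1-expressed human α2B receptor in Tris-HCl pH 7.4 buffer with MgCl2, EDTA and BSA; 60 min incubation at 25 °C.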

[5] = compound at 0.1 μM, repeat datapoints each shown

SMILES: CCCCC(O)(Cn1c2c(c3cc(Cl)ccc31)CN(C)CC2)c1ccc(F)cc1 (single isomer, unassigned) [33b]
Percentage inhibition of ligand binding, Adrenergic α2A (0.1 μM) [1, 5]: −7%
Percentage inhibition of ligand binding, Adrenergic α1D (0.1 μM) ([2]; compound at 0.1 μM, 0.1 µM): 14%
Percentage inhibition of ligand binding, Adrenergic α1B (0.1 μM) ([3]; compound at 0.1 μM, 0.1 µM): 0%
Percentage inhibition of ligand binding, Adrenergic α2B (0.1 μM) ([4]; compound at 0.1 μM, 0.1 µM): 2%

SMILES: CCC(O)(Cn1c2c(c3cc(C)ccc31)CN(C)CC2)c1ccc(F)cc1 (single isomer, unassigned) [34b]
Percentage inhibition of ligand binding, Adrenergic α2A (0.1 μM) ([1]; compound at 0.1 μM, repeat datapoints each shown, 0.1 µM): 3%
Percentage inhibition of ligand binding, Adrenergic α1D (0.1 μM) ([2]; compound at 0.1 μM, 0.1 µM): 13%
Percentage inhibition of ligand binding, Adrenergic α1B (0.1 μM) ([3]; compound at 0.1 μM, 0.1 µM): −2%
Percentage inhibition of ligand binding, Adrenergic α2B (0.1 μM) ([4]; compound at 0.1 μM, 0.1 µM): 1%

SMILES: CC(Cn1c2c(c3ccccc31)CN(C)CC2)c1ccc(F)cc1 (single isomer, unassigned) [272a]
Percentage inhibition of ligand binding, Adrenergic α2A ([1]; compound at 0.1 μM, 0.1 µM): 33%
Percentage inhibition of ligand binding, Adrenergic α1D ([2]; compound at 0.1 μM, 0.1 µM): 12%
Percentage inhibition of ligand binding, Adrenergic α1B ([3]; compound at 0.1 μM, 0.1 µM): 27%
Percentage inhibition of ligand binding, Adrenergic α2B ([4]; compound at 0.1 μM): −10%

SMILES: CCC(O)(Cn1c2c(c3cc(C)ccc31)CN(C)CC2)c1ccncc1 (stereo not shown) [35a]
Percentage inhibition of ligand binding, Adrenergic α2A (0.1 μM) [1, 5]: 20%
Percentage inhibition of ligand binding, Adrenergic α1D (0.1 μM) ([2]; compound at 0.1 μM): 6%
Percentage inhibition of ligand binding, Adrenergic α1B (0.1 μM) ([3]; compound at 0.1 μM): 9%
Percentage inhibition of ligand binding, Adrenergic α2B (0.1 μM) ([4]; compound at 0.1 μM): 62%

Results, then the molecule that gave them:

Percentage inhibition of ligand binding, Adrenergic α2A ([1]; compound at 0.1 μM, 0.1 µM): 53%
Percentage inhibition of ligand binding, Adrenergic α1D ([2]; compound at 0.1 μM, 0.1 µM): −2%
Percentage inhibition of ligand binding, Adrenergic α1B ([3]; compound at 0.1 μM, 0.1 µM): 12%
Percentage inhibition of ligand binding, Adrenergic α2B ([4]; compound at 0.1 μM): 54%
SMILES: Cc1ccc2c(c1)c1c(n2CC(C)c2ccc(C)nc2)CCN(C)C1 (single isomer, unassigned) [289b]

inhibition at 0.1 µM ([1]; read-out: Percentage inhibition of ligand binding, Adrenergic α2A (0.1 μM), compound at 0.1 μM, repeat datapoints each shown): 28%
inhibition at 0.1 µM ([2]; read-out: Percentage inhibition of ligand binding, Adrenergic α1D (0.1 μM), compound at 0.1 μM, repeat datapoints each shown): 2%
inhibition at 0.1 µM ([3]; read-out: Percentage inhibition of ligand binding, Adrenergic α1B (0.1 μM), compound at 0.1 μM, repeat datapoints each shown): 30%
inhibition at 0.1 µM ([4]; read-out: Percentage inhibition of ligand binding, Adrenergic α2B (0.1 μM), compound at 0.1 μM, repeat datapoints each shown): 38%
SMILES: CCC(O)(Cn1c2c(c3cc(C)ccc31)CN(C)CC2)c1ccc(F)cc1 (stereo not shown) [compound 34]

inhibition at 0.1 µM ([1]; compound at 0.1 μM, read-out: Percentage inhibition of ligand binding, Adrenergic α2A): 86%
inhibition at 0.1 µM ([2]; compound at 0.1 μM, read-out: Percentage inhibition of ligand binding, Adrenergic α1D): 56%
inhibition at 0.1 µM ([3]; compound at 0.1 μM, read-out: Percentage inhibition of ligand binding, Adrenergic α1B): 79%
inhibition at 0.1 µM ([4]; compound at 0.1 μM, read-out: Percentage inhibition of ligand binding, Adrenergic α2B): 97%
SMILES: Cc1ccc2c(c1)c1c(n2CCc2sccc2C)CCN(C)C1 [compound 308]
